Data as given in paper PMC9822021, “Biological Activity of Amidino-Substituted Imidazo [4,5-b]pyridines” (Molecules, 2022).
Read-outs that look alike come from different tables or passages of the source.

Tests used:
HCoV OC43 = test: Antiviral CPE reduction assay; assay type: cell-based, human coronavirus OC43; conditions: Betacoronavirus 1, OC43, HEL 299 cells
YFV 17D = test: microbe, parasite or virus in culture; assay type: cell-based; conditions: Yellow fever virus, Huh-7, read-out: EC50 YFV 17D Huh7
Sindbis = test: Antiviral CPE reduction assay; assay type: cell-based; conditions: Sindbis virus, Huh-7, Huh7 cells
RSV A Long = test: Antiviral CPE reduction assay; assay type: cell-based, respiratory syncytial virus A; conditions: human respiratory syncytial virus, HEL 299 cells
in vitro [1] = conditions: human
HCoV 229E = test: Antiviral CPE reduction assay; assay type: cell-based; conditions: Human coronavirus 229E, HEL 299 cells
Zika mr766 = test: Antiviral CPE reduction assay; assay type: cell-based; conditions: Zika virus, Huh-7, Huh7 cells
in vitro [2] = conditions: human; remark: listed apart in the source
HCoV NL63 = test: Antiviral CPE reduction assay; assay type: cell-based; conditions: Human coronavirus NL63, Huh-7, Huh7 cells
S. aureus ATCC 29213 = test: Antibacterial activity in vitro, broth microdilution; assay type: cell-based; conditions: Staphylococcus aureus, ATCC29213; broth microdilution (CLSI), 16–24 h at 37 °C
Experimental: (§1) Synthesized compounds were prepared as 10 mM DMSO solutions and tested in a final concentration range of 100–0.2 µM [34].
(§2) Broth microdilution testing was performed according to CLSI (Clinical Laboratory Standards Institute) guidelines. MIC (minimal inhibitory concentration) values were defined as the last tested concentration of the compound at which there was no visible growth of bacteria. Inoculums for each microorganism were prepared using the direct colony suspension method, where broth solutions that achieved turbidity equivalent to 0.5 McFarland standard were additionally diluted 100× with Ca-adjusted MH media (Becton Dickinson).

S. Pneumoniae ATCC 49619 = test: as above; assay type: cell-based; conditions: Streptococcus pneumoniae, ATCC49619; broth microdilution (CLSI), 16–24 h at 37 °C
Experimental: as §1, §2

E. coli ATCC 25922 = test: as above; assay type: cell-based; conditions: Escherichia coli, ATCC25922; broth microdilution (CLSI), 16–24 h at 37 °C
Experimental: as §1, §2

E. coli Efflux Del = test: microbe, parasite or virus in culture; assay type: cell-based; conditions: Escherichia coli, read-out: MIC E. coli Efflux Del
Experimental: as §1, §2

[3] = test system: Influenza H3N2 (A/HK/7/87); test: Antiviral CPE reduction assay; assay type: cell-based; conditions: Influenza A virus, MDCK cells
[4] = test system: Influenza H1N1 (A/Ned/378/05); test: Antiviral CPE reduction assay; assay type: cell-based; conditions: Influenza A virus, MDCK cells
[5] = test system: Influenza B (B/Ned/537/05); test: Antiviral CPE reduction assay; assay type: cell-based; conditions: Influenza B virus, MDCK cells
in vitro [6] = conditions: dog
HSV-1 KOS = test: Antiviral CPE reduction assay; assay type: cell-based, herpes simplex virus-1; conditions: Human alphaherpesvirus 1
in vitro [7] = test: in vitro
[8] = test system: PC3 prostate carcinoma cells; test: In vitro antiproliferative activity, MTT assay; assay type: cell-based; conditions: Homo sapiens, 72 h
Description: (§3) Human cancer cell lines used in this manuscript, namely Capan-1, HCT-116, NCI-H460, LN-229, HL-60, K-562, Z-138, SW620, PC3 and HeLa, were acquired from the American Type Culture Collection (ATCC, Manassas, VA, USA), while the DND-41 cell line was purchased from the Deutsche Sammlung von Mikroorganismen und Zellkulturen (DSMZ Leibniz-Institut, Germany). Culture media were purchased from Gibco Life Technologies, USA, and supplemented with 10% fetal bovine serum (HyClone, GE Healthcare Life Sciences, Chicago, IL, USA), except for the media for SW620, PC3 and HeLa cells, which were purchased from Sigma.
(§4) Adherent cell lines LN-229, HCT-116, NCI-H460 and Capan-1 cells were seeded at a density between 500 and 1500 cells per well in 384-well tissue culture plates (Greiner). […]. Cells were incubated for 72 h with compounds and were then analyzed using the CellTiter 96® AQueous One Solution Cell Proliferation Assay (MTS) reagent (Promega) according to the manufacturer’s instructions. Absorbance of the samples was measured at 490 nm using a SpectraMax Plus 384 (Molecular Devices), and OD values were used to calculate the 50% inhibitory concentration (IC50). Compounds were tested in two independent experiments. SW620, PC3 and HeLa cells were seeded in 96-well microtiter plates at 1 × 10^4 to 3 × 10^4 cells/mL, depending on the doubling times of the specific cell line. Test agents were then added in five 10-fold dilutions (10^−8 to 10^−4 M). Working dilutions were freshly prepared on the day of testing. After 72 h of incubation, the cell growth rate was evaluated using the MTT assay as described previously. Absorbance of the samples was measured at 570 nm, and OD values were used to calculate the 50% inhibitory concentration (IC50). Each test was performed in quadruplicate in at least two individual experiments.

[9] = test system: HeLa cervical carcinoma cells; test: In vitro antiproliferative activity, MTT assay; assay type: cell-based; conditions: Homo sapiens, 72 h
Description: as §3, §4

[10] = test system: SW620 colon carcinoma cells; test: In vitro antiproliferative activity, MTT assay; assay type: cell-based; conditions: Homo sapiens, SW-620, 72 h
Description: as §3, §4

[11] = test system: Z-138 non-Hodgkin lymphoma cells; test: In vitro antiproliferative activity, MTS proliferation assay; assay type: cell-based, human; conditions: Homo sapiens, Z-138, 72 h
Description: as §3, §4

[12] = test system: Capan-1 pancreatic adenocarcinoma cells; test: as above; assay type: cell-based; conditions: Homo sapiens, 72 h
Experimental: (§5) Culture media were purchased from Gibco Life Technologies, USA, and supplemented with 10% fetal bovine serum (HyClone, GE Healthcare Life Sciences, Chicago, IL, USA), except for the media for SW620, PC3 and HeLa cells, which were purchased from Sigma.
(§6) Cells were incubated for 72 h with compounds and were then analyzed using the CellTiter 96® AQueous One Solution Cell Proliferation Assay (MTS) reagent (Promega) according to the manufacturer’s instructions. […] Compounds were tested in two independent experiments. SW620, PC3 and HeLa cells were seeded in 96-well microtiter plates at 1 × 10^4 to 3 × 10^4 cells/mL, depending on the doubling times of the specific cell line. Test agents were then added in five 10-fold dilutions (10^−8 to 10^−4 M). Working dilutions were freshly prepared on the day of testing. After 72 h of incubation, the cell growth rate was evaluated using the MTT assay as described previously. […] Each test was performed in quadruplicate in at least two individual experiments.

[13] = test system: DND-41 acute lymphoblastic leukemia cells; test: as above; assay type: cell-based; conditions: Homo sapiens, DND41, 72 h
Experimental: as §5, §6

[14] = test system: HL-60 acute myeloid leukemia cells; test: as above; assay type: cell-based; conditions: Homo sapiens, 72 h
Experimental: as §5, §6

[15] = test system: LN-229 glioblastoma cells; test: as above; assay type: cell-based; conditions: Homo sapiens, 72 h
Description: as §3, §4

[16] = test system: NCI-H460 lung carcinoma cells; test: as above; assay type: cell-based; conditions: Homo sapiens, 72 h
Description: as §3, §4

[17] = test system: K-562 chronic myeloid leukemia cells; test: as above; assay type: cell-based; conditions: Homo sapiens, K562, 72 h
Description: as §3, §4

[18] = test system: HCT-116 colorectal carcinoma cells; test: as above; assay type: cell-based; conditions: Homo sapiens, 72 h
Description: as §3, §4

Structure (SMILES)	EC50 (HCoV OC43) [µM]	EC50 (YFV 17D) [µM]	EC50 (Sindbis) [µM]	CC50 (in vitro [1]) [µM]	EC50 (HCoV 229E) [µM]	EC50 (Zika mr766) [µM]	CC50 (in vitro [2]) [µM]	EC50 (HCoV NL63) [µM]	MIC (S. aureus ATCC 29213) [µM]	MIC (S. Pneumoniae ATCC 49619) [µM]	MIC (E. coli ATCC 25922) [µM]	melting point [°C]	MIC (E. coli Efflux Del) [µM]	EC50 (RSV A Long; HEL 299, CPE reduction) [µM]	EC50 [3] [µM]	EC50 [4] [µM]	EC50 [5] [nM]	CC50 (in vitro [6]) [µM]	EC50 (HSV-1 KOS) [nM]	further results
CCC(CC)COC(=O)[C@H](C)N[P@](=O)(OC[C@H]1O[C@@](C#N)(c2ccc3c(N)ncnn23)[C@H](O)[C@@H]1O)Oc1ccccc1 [Remdesivir, remdesivir, reference compound]	0.06	6.2	> 10	> 10	0.06	0.7	> 10	0.03												EC50 (RSV A Long; CPE reduction): 0.03 ± 0.01 µM
Brc1cnc2nc(-c3ccccc3)[nH]c2c1 [Compound 7, 6-Bromo-2-phenyl-1H-imidazo[4,5-b]pyridine]	> 100	> 100	> 100	> 100	> 100	> 100	> 100	> 100	> 64	> 64	> 64	> 300	> 64	21 ± 5.9	> 100	> 100	> 100000	> 100	> 100000	
O=c1[nH]c(=O)n([C@H]2C[C@H](O)[C@@H](CO)O2)cc1/C=C/Br [BVDU, brivudine, reference compound]																		> 100	50	
Cl.c1cnc2nc(-c3ccc(C4=NCCN4)cc3)[nH]c2c1 [Compound 11, 2-(4-(4,5-Dihydro-1H-imidazol-2-yl)phenyl)-1H-imidazo[4,5-b]pyridine Hydrochloride]									> 64	> 64	> 64	> 300	> 64					> 100		CC50 (in vitro [7]): > 30 µM; IC50 [8]: ≥ 100 µM; IC50 [9]: 11.1 ± 3.5 µM; IC50 [10]: 12.1 ± 3.7 µM; IC50 [11]: 76.4 ± 33.4 µM; IC50 [12]: 74.5 ± 36.1 µM; IC50 [13]: 48.8 ± 12.5 µM; IC50 [14]: > 100 µM; IC50 [15]: 81.7 ± 17.4 µM; IC50 [16]: 84.9 ± 21.4 µM; IC50 [17]: > 100 µM; IC50 [18]: > 100 µM
NC(=O)c1ncn([C@@H]2O[C@H](CO)[C@@H](O)[C@H]2O)n1 [Ribavirin, ribavirin, reference compound]	170	> 250			82.6	> 250		> 250						10.8 ± 2.1	4 ± 2.7	10.5 ± 3.8	2800 ± 1800	80.2 ± 18.6		
